According to patent publication US3932512A, “Antiviral 1,2,3,4-tetrahydro-1,-alkano naphthalenamine derivatives” (priority 1972, dated 1976):
Read-outs that look alike come from different tables or passages of the source.

Assays:
[1] = cytotoxicity in G-2 cells; assay type: cell-based; settings: human
Method: In preparing the compounds for testing, they were handled aseptically throughout. The compounds were dissolved in a minimum amount of a suitable solvent and the final dilutions were made up to the required volume in a complete culture medium used in assay and in concentration not exceeding the predetermined maximum non-toxic levels.
The cell culture used in all primary in vitro anti-myxovirus assays was an established cell line of the human conjunctiva (G-2 cells). The cytotoxic studies of each of the compounds were performed prior to testing for antiviral activity to determine level of response of the cells to the potentially toxic action of the compounds.

[2] = tested on: influenza A2 virus Aichi/2/68; test: preventive control of influenza A2 in mice, compound I at different levels; assay type: in vivo, influenza A2 virus Aichi/2/68 (in Charles River white mice)
Method: In the following experiment, compound I was tested at different levels for preventive control of influenza as follows:
Charles River white mice, starting weight: 10-12 g;
12 mice per group (24 mice as control).
Virus: Mice were inoculated intranasally with influenza
A2 virus Aichi/2/68, with a titer of 2,88 LD50,
Mice were divided into 5 groups and received
day intraperitoneally, once a day for 16 days
beginning one day prior to infection with the
virus. Mice were weighed each day before inocula-
tions and doses adjusted according to the actual
weight of each animal. The active compound was
suspended in phosphate buffered saline.

[3] = tested on: Influenza A2 /Aichi/3/68; test: in vitro anti-myxovirus activity, influenza A2 /Aichi/3/68, G-2 cells (% inhibition of hemadsorption); assay type: cell-based, Influenza A2 /Aichi/3/68 (human); settings: for inhibition at 40 µg/mL: 40 μg/ml; for inhibition at 30 µg/mL / inhibition at 50 µg/mL / inhibition at 60 µg/mL / inhibition at 70 µg/mL / inhibition at 80 µg/mL / inhibition at 90 µg/mL / inhibition at 100 µg/mL: Homo sapiens; for inhibition at 30 µg/mL: 30 μg/ml; for inhibition at 50 µg/mL: 50 μg/ml; for inhibition at 60 µg/mL: 60 μg/ml; for inhibition at 70 µg/mL: 70 μg/ml; for inhibition at 80 µg/mL: 80 μg/ml; for inhibition at 90 µg/mL: 90 μg/ml; for inhibition at 100 µg/mL: 100 μg/ml, read-out: % Inhibition
[4] = toxicity of in vitro active anti-myxovirus compounds in mice; settings: mouse, in vivo
[5] = tested on: mice; test: as above
[6] = tested on: Influenza (swine); test: cells; assay type: cell-based
[7] = tested on: influenza viruses; test: relative antiviral activity in vitro; assay type: cell-based; settings: words
[8] = 100 mg/kg, day 10 postinfection
[9] = 100 mg/kg, day 11 postinfection
[10] = 100 mg/kg, day 12 postinfection
[11] = 100 mg/kg, day 13 postinfection
[12] = 100 mg/kg, day 14 postinfection

Q: What does the source list for `N[C@H]1C[C@@H]2C[C@H]1c1ccccc12` (relative stereo) [Compound I]?
A: CC50 ([1]; 50% inhibition of cell growth, read-out: Cytotoxicity CTD50): > 100 µg/mL; MNTC ([1]; maximal non-toxic concentration, read-out: Cytotoxicity CTD0): > 100 µg/mL; Survivors % ([2]; 40 mg/kg): 8.3%; Survivors S/T ([2]; 40 mg/kg): 1/12; Cumulative mortality % ([2]; 40 mg/kg, day 8 postinfection): 8.3%; Cumulative mortality N ([2]; 40 mg/kg, day 8 postinfection): 1; Cumulative mortality % ([2]; 40 mg/kg, day 9 postinfection): 41.7%; Cumulative mortality N ([2]; 40 mg/kg, day 9 postinfection): 5; Cumulative mortality % ([2]; 40 mg/kg, day 10 postinfection): 58.3%; Cumulative mortality N ([2]; 40 mg/kg, day 10 postinfection): 7; Cumulative mortality % ([2]; 40 mg/kg, day 11 postinfection): 75.0%; Cumulative mortality N ([2]; 40 mg/kg, day 11 postinfection): 9; Cumulative mortality % ([2]; 40 mg/kg, day 12 postinfection): 83.3%; Cumulative mortality N ([2]; 40 mg/kg, day 12 postinfection): 10; Cumulative mortality % ([2]; 40 mg/kg, day 13 postinfection): 91.6%; Cumulative mortality N ([2]; 40 mg/kg, day 13 postinfection): 11; Cumulative mortality % ([2]; 40 mg/kg, day 14 postinfection): 91.6%; Cumulative mortality N ([2]; 40 mg/kg, day 14 postinfection): 11; Survivors % ([2]; 55 mg/kg): 8.3%; Survivors S/T ([2]; 55 mg/kg): 1/12; Cumulative mortality % ([2]; 55 mg/kg, day 8 postinfection): 8.3%; Cumulative mortality N ([2]; 55 mg/kg, day 8 postinfection): 1; Cumulative mortality % ([2]; 55 mg/kg, day 9 postinfection): 16.7%; Cumulative mortality N ([2]; 55 mg/kg, day 9 postinfection): 2; Cumulative mortality % ([2]; 55 mg/kg, day 10 postinfection): 41.7%; Cumulative mortality N ([2]; 55 mg/kg, day 10 postinfection): 5; Cumulative mortality % ([2]; 55 mg/kg, day 11 postinfection): 58.3%; Cumulative mortality N ([2]; 55 mg/kg, day 11 postinfection): 7; Cumulative mortality % ([2]; 55 mg/kg, day 12 postinfection): 75.0%; Cumulative mortality N ([2]; 55 mg/kg, day 12 postinfection): 9; Cumulative mortality % ([2]; 55 mg/kg, day 13 postinfection): 91.6%; Cumulative mortality N ([2]; 55 mg/kg, day 13 postinfection): 11; Cumulative mortality % ([2]; 55 mg/kg, day 14 postinfection): 91.6%; Cumulative mortality N ([2]; 55 mg/kg, day 14 postinfection): 11; Survivors % ([2]; 70 mg/kg): 50.0%; Survivors S/T ([2]; 70 mg/kg): 6/12; Cumulative mortality % ([2]; 70 mg/kg, day 8 postinfection): 8.3%; Cumulative mortality N ([2]; 70 mg/kg, day 8 postinfection): 1; Cumulative mortality % ([2]; 70 mg/kg, day 9 postinfection): 8.3%; Cumulative mortality N ([2]; 70 mg/kg, day 9 postinfection): 1; Cumulative mortality % ([2]; 70 mg/kg, day 10 postinfection): 41.7%; Cumulative mortality N ([2]; 70 mg/kg, day 10 postinfection): 5; Cumulative mortality % ([2]; 70 mg/kg, day 11 postinfection): 50.0%; Cumulative mortality N ([2]; 70 mg/kg, day 11 postinfection): 6; Cumulative mortality % ([2]; 70 mg/kg, day 12 postinfection): 50.0%; Cumulative mortality N ([2]; 70 mg/kg, day 12 postinfection): 6; Cumulative mortality % ([2]; 70 mg/kg, day 13 postinfection): 50.0%; Cumulative mortality N ([2]; 70 mg/kg, day 13 postinfection): 6; Cumulative mortality % ([2]; 70 mg/kg, day 14 postinfection): 50.0%; Cumulative mortality N ([2]; 70 mg/kg, day 14 postinfection): 6; Survivors % ([2]; 85 mg/kg): 50.0%; Survivors S/T ([2]; 85 mg/kg): 6/12; Cumulative mortality % ([2]; 85 mg/kg, day 8 postinfection): 0%; Cumulative mortality N ([2]; 85 mg/kg, day 8 postinfection): 0; Cumulative mortality % ([2]; 85 mg/kg, day 9 postinfection): 8.3%; Cumulative mortality N ([2]; 85 mg/kg, day 9 postinfection): 1; Cumulative mortality % ([2]; 85 mg/kg, day 10 postinfection): 25.0%; Cumulative mortality N ([2]; 85 mg/kg, day 10 postinfection): 3; Cumulative mortality % ([2]; 85 mg/kg, day 11 postinfection): 33.3%; Cumulative mortality N ([2]; 85 mg/kg, day 11 postinfection): 4; Cumulative mortality % ([2]; 85 mg/kg, day 12 postinfection): 50.0%; Cumulative mortality N ([2]; 85 mg/kg, day 12 postinfection): 6; Cumulative mortality % ([2]; 85 mg/kg, day 13 postinfection): 50.0%; Cumulative mortality N ([2]; 85 mg/kg, day 13 postinfection): 6; Cumulative mortality % ([2]; 85 mg/kg, day 14 postinfection): 50.0%; Cumulative mortality N ([2]; 85 mg/kg, day 14 postinfection): 6; Survivors % ([2]; 100 mg/kg): 66.4%; Survivors S/T ([2]; 100 mg/kg): 8/12; Cumulative mortality % ([2]; 100 mg/kg, day 8 postinfection): 0%; Cumulative mortality N ([2]; 100 mg/kg, day 8 postinfection): 0; Cumulative mortality % ([2]; 100 mg/kg, day 9 postinfection): 0%; Cumulative mortality N ([2]; 100 mg/kg, day 9 postinfection): 0; Cumulative mortality % [2, 8]: 16.7%; Cumulative mortality N [2, 8]: 2; Cumulative mortality % [2, 9]: 25.0%; Cumulative mortality N [2, 9]: 3; Cumulative mortality % [2, 10]: 33.3%; Cumulative mortality N [2, 10]: 4; Cumulative mortality % [2, 11]: 33.3%; Cumulative mortality N [2, 11]: 4; Cumulative mortality % [2, 12]: 33.3%; Cumulative mortality N [2, 12]: 4; inhibition at 40 µg/mL ([3]; 17.8 TCID50): 13%; inhibition at 40 µg/mL ([3]; 178 TCID50): 0%; inhibition at 30 µg/mL ([3]; 17.8 TCID50): 0%; inhibition at 30 µg/mL ([3]; 178 TCID50): 0%; inhibition at 50 µg/mL ([3]; 17.8 TCID50): 30%; inhibition at 50 µg/mL ([3]; 178 TCID50): 10%; inhibition at 60 µg/mL ([3]; 17.8 TCID50): 87%; inhibition at 60 µg/mL ([3]; 178 TCID50): 37%; inhibition at 70 µg/mL ([3]; 17.8 TCID50): 90%; inhibition at 70 µg/mL ([3]; 178 TCID50): 53%; inhibition at 80 µg/mL ([3]; 17.8 TCID50): 97%; inhibition at 80 µg/mL ([3]; 178 TCID50): 77%; inhibition at 90 µg/mL ([3]; 17.8 TCID50): 97%; inhibition at 90 µg/mL ([3]; 178 TCID50): 80%; inhibition at 100 µg/mL ([3]; 17.8 TCID50): 97%; inhibition at 100 µg/mL ([3]; 178 TCID50): 90%; MTD [4]: ≤ 100 mg/kg; LD50 ([4]; ip, 50% toxic dose LD50, acute, I/P, acute): 100 mg/kg; LD50 ([4]; ip, 50% toxic dose LD50, subacute, I/P, subacute): 100 mg/kg; LD50 ([4]; po, 50% toxic dose LD50, acute, P/O, acute): 275 mg/kg; LD50 ([4]; po, 50% toxic dose LD50, subacute, P/O, subacute): 250 to 275 mg/kg; Maximal non-toxic dose LD0, acute ([5]; I/P): 125 mg/kg; Maximal non-toxic dose LD0, subacute ([5]; I/P): 100 mg/kg; Maximal non-toxic dose LD0, acute ([5]; P/O): 250 mg/kg; Maximal non-toxic dose LD0, subacute ([5]; P/O): 225 mg/kg; inhibition at 40 µg/mL ([6]; 40 μg/ml): 0%; % Inhibition ([6]; 50 μg/ml, listed as 1,2,3,4-TETRAHYDRO-1,4-[…]-ENDO-2-AMINE.HCl): 7%; inhibition at 80 µg/mL ([6]; 80 μg/ml): 90%; inhibition at 90 µg/mL ([6]; 90 μg/ml): 97%; inhibition at 100 µg/mL ([6]; 100 μg/ml): 100%

Q: For `C[C@@H]1[C@H](N)[C@H]2C[C@@H]1c1ccccc12` (relative stereo) [IV, 1,2,3,4-tetrahydro-1,4-methanonaphthalen-endo-3-methyl-endo-2-amine], which relative antiviral activity [7] is on record?
A: Its relative antiviral activity is “relatively low antiviral activity”.
